From patent publication US4665086A, “Method for minimizing disturbances in circadian rhythms of bodily performance and function” (priority 1983, dated 1987)
“Also recorded” adds a separate entry of the source. Read-outs that look alike come from different tables or passages of the source.

How the values were obtained:
Type in all cases: in vivo, human
[1] = tested on: circadian rhythms in humans (jet lag); assay: Example 1: Subject A, flight Melbourne-North Carolina-Melbourne, melatonin at local bedtime
Description: Subject A was a Professor of Physiology who had never taken melatonin before. |Flight from Melbourne → North Carolina, U.S.A. → Melbourne. |Details of activity schedule, sleeping time, melatonin administration. In this example Subject A used a preparation of crystalline melatonin in a gelatin capsule.

[2] = tested on: circadian rhythms in humans (jet lag); assay: Example 2: Subject A, flight Melbourne-Munster-Melbourne, melatonin at local bedtime; conditions: 5 mg oral capsule
Description: |Flight from Melbourne → Munster, W. Germany → Melbourne. |Details of activity schedule, sleeping time, melatonin administration. As in Example 1, Subject A took melatonin packaged in a gelatine capsule.

[3] = tested on: circadian rhythms in humans (jet lag); assay: Example 3: Subject A, flight Melbourne-Stockholm-London-Melbourne, melatonin at local bedtime; conditions: 5 mg oral
Description: |Subject A Flight from Melbourne → Stockholm → London |Detail of activity schedule, sleeping times, melatonin adminsitration.

[4] = tested on: circadian rhythms in humans (jet lag); assay: Example 6: Subject C, flight Melbourne-Los Angeles-Washington-London-Vancouver-Melbourne, verbatim account; conditions: for overall effect on jet-lag (subject's impression, comment): 5 mg capsule on retiring and a second on awaking
Experimental: Subject C Flight from Melbourne→Los Angeles→Washington→London→Vancouver→Melbourne. 15.2.84-27.3.84 The subject, a Professor who had never taken Melatonin before, was given gelatin capsules containing 5 mg Melatonin and instructed to take one capsule on going to bed in the evening (local time) after arrival at their destination, and to take a further capsule if they awoke in the night.

[5] = tested on: circadian rhythms in humans (jet lag)
Experimental: Subject D Flight from Melbourne→London→Edinburgh→London→Melbourne 23.3.84-2.4.84 The subject, a Clinical Professor who had never taken Melatonin before, was given gelatin capsules containing 5 mg Melatonin and instructed to take one capsule on going to bed in the evening (local time) after arrival at their destination, and to take a further capsule if they awoke in the night.

## COc1ccc2[nH]cc(CCNC(C)=O)c2c1 [melatonin, 5-methoxy-N-acetyltryptamine]
[1]; 2.5-5.0 mg oral melatonin at bedtime and on waking
  symptoms of jet lag / fatigue (comment): no symptoms of jet lag whatsoever; also recorded: never felt any fatigue whatsoever
[1]; 2.5 or 5.0 mg oral per dose
  feeling on awakening after melatonin sleep (diary): Felt fresh, relaxed, not jet-lagged; also recorded: felt fresh, relaxed
  sleep after taking melatonin (diary): fell asleep again
[1]; awoke during the night in North Carolina, oral crystalline melatonin in gelatin capsule
  time to fall asleep again after taking additional melatonin: ≤ 15 min
[2]
  sleep after taking melatonin (diary, comment): sleep well following both Westerly and Easterly flights
[2]; 8-hour time zone change
  symptoms of jet lag (comment): no symptoms of jet lag apart from tiredness on the second day after their return to Melbourne
[2]; listed as Melatonin
  feeling on awakening / during day after melatonin sleep (diary): Felt fresh and rested, much less tired; also recorded: feeling excellent; also recorded: feeling fine; also recorded: feeling good; also recorded: felt fresh and rested; also recorded: Felt tired during the day; also recorded: hangover
  sleep after taking melatonin (diary, comment): fell asleep; also recorded: slept deeply; also recorded: good sleep; also recorded: slept very well; also recorded: slept well
[3]
  sleep after taking melatonin (diary, comment): sleep well at an inappropriate time of the day
[3]; 8-9 hour time change
  feeling jet-lagged (comment): At no time during the day either in Sweden or on their return to Melbourne did they feel jet-lagged
[3]; listed as Melatonin
  feeling on awakening / during day after melatonin sleep (diary): Feeling fine; also recorded: Felt good; also recorded: feeling good; also recorded: Felt fine
  sleep after taking melatonin (diary, comment): fell asleep again; also recorded: good sleep; also recorded: slept well; also recorded: sleep until 2330 hrs; also recorded: asleep 2400 hrs
[3]; return flight after Singapore
  time to fall asleep after taking melatonin (diary): 3/4
[4]
  overall effect on jet-lag (subject's impression, comment): prevented the usual, unpleasant symptoms associated with rapid changes in time zones
[4]; listed as Melatonin
  overall effect on jet-lag (subject's impression, comment): great improvement over my normal experience of jet-lag
[4]; Los Angeles, London (5 h change), Vancouver (8 h change)
  feeling / adjustment the day after melatonin: felt very close to normal; also recorded: feeling normal and appeared to be fully adjusted to the London time; also recorded: felt a little unusual and later, around 4.00 pm felt very sleepy
[4]; first night in Los Angeles
  sleep after taking melatonin: sleep that night appeared normal
[5]; Subject D, 5 mg (5+5 mg on Bombay-London leg), listed as Melatonin
  sleep after taking melatonin: did not induce sleep when taken on the outward journey
[5]; Subject D, much less than when using Mogadon
  napping during daytime meeting talks: napped minimally
[5]; human, in vivo
  effects of discontinuing melatonin: no adverse effects
